Tests used:
barnyardgrass = assay: Test A preemergence; format: in vivo, Echinochloa crus-galli; conditions: preemergence
In short: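 Injury readout: eye-scored versus untreated controls, 0 to 100. Exposure period: ~10 days, greenhouse. Application: soil-directed spray over sown seed (pre) or spray on seedlings 2–10 cm tall with one or two leaves (post), compound carried in non-phytotoxic solvent including surfactant.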

rice = assay: Test B flood; format: in vivo, Oryza sativa; conditions: 250 g ai/ha, visual rating on 0 to 100 scale (0 no effect, 100 complete control), 13 to 15 days
In short: (§1)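 Plants were grown to the 2-leaf stage and pots flooded to 3 cm above soil. Compounds were applied directly into the paddy water, with depth kept for the test. After 13–15 days in greenhouse, response was rated visually against controls on a 0 (no effect) to 100 (complete control) scale.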

ducksalad = assay: Test B flood; format: in vivo, Heteranthera limosa; conditions: 250 g ai/ha, visual rating on 0 to 100 scale (0 no effect, 100 complete control), 13 to 15 days
In short: as §1

lambsquarters = assay: Test C preemergence; format: in vivo, Chenopodium album; conditions: for Plant response rating (scale of 0 to 100), Lambsquarters: Preemergence, 250 g ai/ha; for Lambsquarters plant response rating / Plant response rating, Lambsquarters: preemergence, 13 to 15 days; for Lambsquarters plant response rating: scale 0 to 100 (0 no effect, 100 complete control); for Plant response rating, Lambsquarters: 125 g ai/ha, scale 0 to 100, 0 = no effect, 100 = complete control
In short: (§2)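 Herbicidal effect is expressed as percent visual control (0–100) judged against untreated plants 13 to 15 days after treatment in the greenhouse. Preemergence pots contained seeds in a soil–sand blend; postemergence plants, 2–18 cm tall, grew in peat-based planting medium.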

morningglory = assay: Test C preemergence; format: in vivo, Ipomoea coccinea; conditions: for Plant response rating (scale of 0 to 100), Morningglory: Preemergence, 250 g ai/ha; for Morningglory plant response rating / Plant response rating, Morningglory: preemergence, 13 to 15 days; for Morningglory plant response rating: scale 0 to 100 (0 no effect, 100 complete control); for Plant response rating, Morningglory: 125 g ai/ha, scale 0 to 100, 0 = no effect, 100 = complete control
In short: as §2

nutsedge, yellow [1] = assay: Test C preemergence; format: in vivo, Cyperus esculentus; conditions: for Plant response rating (scale of 0 to 100), Nutsedge, Yellow: Preemergence, 250 g ai/ha; for Nutsedge, Yellow plant response rating / Plant response rating, Nutsedge, Yellow: preemergence, 13 to 15 days; for Nutsedge, Yellow plant response rating: scale 0 to 100 (0 no effect, 100 complete control); for Plant response rating, Nutsedge, Yellow: 125 g ai/ha, scale 0 to 100, 0 = no effect, 100 = complete control
In short: as §2

waterhemp = assay: Test C preemergence; format: in vivo, Amaranthus rudis; conditions: for Plant response rating (scale of 0 to 100), Waterhemp: Preemergence, 250 g ai/ha; for Waterhemp plant response rating / Plant response rating, Waterhemp: preemergence, 13 to 15 days; for Waterhemp plant response rating: scale 0 to 100 (0 no effect, 100 complete control); for Plant response rating, Waterhemp: 125 g ai/ha, scale 0 to 100, 0 = no effect, 100 = complete control
In short: as §2

velvetleaf = assay: Test C preemergence; format: in vivo, Abutilon theophrasti; conditions: for Plant response rating (scale of 0 to 100), Velvetleaf: Preemergence, 250 g ai/ha; for Velvetleaf plant response rating / Plant response rating, Velvetleaf: preemergence, 13 to 15 days; for Velvetleaf plant response rating: scale 0 to 100 (0 no effect, 100 complete control); for Plant response rating, Velvetleaf: 125 g ai/ha, scale 0 to 100, 0 = no effect, 100 = complete control
In short: as §2

johnsongrass = assay: Test C postemergence; format: in vivo, Sorghum halepense; conditions: for Plant response rating (scale of 0 to 100 where 0 is no effect and 100 is complete control), Johnsongrass: Postemergence, 31 g ai/ha, visually evaluated after 13 to 15 days; for Johnsongrass plant response rating / Plant response rating, Johnsongrass: postemergence; for Johnsongrass plant response rating: 62 g ai/ha, scale 0 to 100
In short: as §2

nutsedge, yellow [2] = assay: Test C postemergence; format: in vivo, Cyperus esculentus; conditions: for Plant response rating (scale of 0 to 100 where 0 is no effect and 100 is complete control), Nutsedge, Yellow: Postemergence, 31 g ai/ha, visually evaluated after 13 to 15 days; for Nutsedge, Yellow plant response rating / Plant response rating, Nutsedge, Yellow: postemergence; for Nutsedge, Yellow plant response rating: 62 g ai/ha, scale 0 to 100
In short: as §2

soybean = assay: Test C postemergence; format: in vivo, Glycine max; conditions: for Plant response rating (scale of 0 to 100 where 0 is no effect and 100 is complete control), Soybean: Postemergence, 31 g ai/ha, visually evaluated after 13 to 15 days; for Soybean plant response rating / Plant response rating, Soybean: postemergence; for Soybean plant response rating: 62 g ai/ha, scale 0 to 100
In short: as §2

kochia = assay: Test C postemergence; format: in vivo, Kochia scoparia; conditions: for Plant response rating (scale of 0 to 100 where 0 is no effect and 100 is complete control), Kochia: Postemergence, 31 g ai/ha, visually evaluated after 13 to 15 days; for Kochia plant response rating / Plant response rating, Kochia: postemergence; for Kochia plant response rating: 62 g ai/ha, scale 0 to 100
In short: as §2

[3] = 125 g ai/ha, visual injury, 0 to 100 scale, approx. 10 days
[4] = 500 g ai/ha, visual injury after approx. 10 days, 0 to 100 scale (0 no effect, 100 complete control)
[5] = 250 g ai/ha, scale 0 to 100 (0 no effect, 100 complete control)
[6] = 125 g ai/ha, scale 0 to 100, 0 no effect, 100 complete control

Compound | Barnyardgrass plant response rating (barnyardgrass; [3]) | Barnyardgrass plant response rating (barnyardgrass; [4]) | Plant response rating, Rice (rice) | Plant response rating, Ducksalad (ducksalad) | Plant response rating (scale of 0 to 100), Lambsquarters (lambsquarters) | Lambsquarters plant response rating (lambsquarters; 31 g ai/ha, visual rating) | Lambsquarters plant response rating (lambsquarters; 62 g ai/ha) | Plant response rating, Lambsquarters (lambsquarters) | Plant response rating (scale of 0 to 100), Morningglory (morningglory) | Morningglory plant response rating (morningglory; 31 g ai/ha, visual rating) | Morningglory plant response rating (morningglory; 62 g ai/ha) | Plant response rating, Morningglory (morningglory) | Plant response rating (scale of 0 to 100), Nutsedge, Yellow (nutsedge, yellow [1]) | Nutsedge, Yellow plant response rating (nutsedge, yellow [1]; 31 g ai/ha, visual rating) | Nutsedge, Yellow plant response rating (nutsedge, yellow [1]; 62 g ai/ha) | Plant response rating, Nutsedge, Yellow (nutsedge, yellow [1]) | Plant response rating (scale of 0 to 100), Waterhemp (waterhemp) | Waterhemp plant response rating (waterhemp; 31 g ai/ha, visual rating) | Waterhemp plant response rating (waterhemp; 62 g ai/ha) | Plant response rating, Waterhemp (waterhemp) | further results
CCCc1cc(C(=O)NCC(F)(F)F)nn1Cc1ccnc(OC(F)F)c1 [Compound 127] | 90 | 90 | 20 | 95 | 100 | 100 | 80 | 90 | 100 | 60 | 55 | 100 | 85 | 25 | 50 | 70 | 100 | 100 | 100 | 100 | Plant response rating (scale of 0 to 100), Velvetleaf (velvetleaf): 100; Velvetleaf plant response rating (velvetleaf; 31 g ai/ha, visual rating): 60; Velvetleaf plant response rating (velvetleaf; 62 g ai/ha): 60; Plant response rating, Velvetleaf (velvetleaf): 100; Plant response rating (scale of 0 to 100 where 0 is no effect and 100 is complete control), Johnsongrass (johnsongrass): 5; Johnsongrass plant response rating (johnsongrass): 5; Plant response rating, Johnsongrass (johnsongrass; [5]): 25; Plant response rating, Johnsongrass (johnsongrass; [6]): 30; Plant response rating (scale of 0 to 100 where 0 is no effect and 100 is complete control), Nutsedge, Yellow (nutsedge, yellow [2]): 5; Nutsedge, Yellow plant response rating (nutsedge, yellow [2]): 5; Plant response rating, Nutsedge, Yellow (nutsedge, yellow [2]; [5]): 25; Plant response rating, Nutsedge, Yellow (nutsedge, yellow [2]; [6]): 15; Plant response rating (scale of 0 to 100 where 0 is no effect and 100 is complete control), Soybean (soybean): 40; Soybean plant response rating (soybean): 65; Plant response rating, Soybean (soybean; [5]): 85; Plant response rating, Soybean (soybean; [6]): 70; Plant response rating (scale of 0 to 100 where 0 is no effect and 100 is complete control), Kochia (kochia): 60; Kochia plant response rating (kochia): 65; Plant response rating, Kochia (kochia; [5]): 90; Plant response rating, Kochia (kochia; [6]): 65
CCOc1cc(C(=O)NCC(F)(F)F)nn1Cc1ccnc(OC(F)F)c1 [Compound 128] | 100 | 100 | 30 | 95 | 98 | 98 | 100 | 98 | 100 | 75 | 70 | 98 | 90 | 45 | 75 | 80 | 100 | 100 | 100 | 100 | Plant response rating (scale of 0 to 100), Velvetleaf (velvetleaf): 100; Velvetleaf plant response rating (velvetleaf; 31 g ai/ha, visual rating): 5; Velvetleaf plant response rating (velvetleaf; 62 g ai/ha): 100; Plant response rating, Velvetleaf (velvetleaf): 100; Plant response rating (scale of 0 to 100 where 0 is no effect and 100 is complete control), Johnsongrass (johnsongrass): 5; Johnsongrass plant response rating (johnsongrass): 5; Plant response rating, Johnsongrass (johnsongrass; [5]): 10; Plant response rating, Johnsongrass (johnsongrass; [6]): 5; Plant response rating (scale of 0 to 100 where 0 is no effect and 100 is complete control), Nutsedge, Yellow (nutsedge, yellow [2]): 5; Nutsedge, Yellow plant response rating (nutsedge, yellow [2]): 5; Plant response rating, Nutsedge, Yellow (nutsedge, yellow [2]; [5]): 25; Plant response rating, Nutsedge, Yellow (nutsedge, yellow [2]; [6]): 10; Plant response rating (scale of 0 to 100 where 0 is no effect and 100 is complete control), Soybean (soybean): 65; Soybean plant response rating (soybean): 95; Plant response rating, Soybean (soybean; [5]): 98; Plant response rating, Soybean (soybean; [6]): 95; Plant response rating (scale of 0 to 100 where 0 is no effect and 100 is complete control), Kochia (kochia): 60; Kochia plant response rating (kochia): 65; Plant response rating, Kochia (kochia; [5]): 90; Plant response rating, Kochia (kochia; [6]): 65
